Here are results for 12 molecules from US7947839B2, “Heterocyclic-substituted bis-1,8 naphthalimide compounds, antibody drug conjugates, and methods of use” (Genentech, Inc., priority 2004, dated 2011).

Counter-ions that a name gives are not always drawn. Like-named read-outs stand apart in the source and are kept apart here.

This assay has as its system BT474, H460, HCT116, HUVEC, LNCAP, MCF7, and PC3 cells. Kind of assay: free test compound cell-based assay, 7 tumor cell panel (CellTiter-Glo). The following applies: Homo sapiens, NSA = no significant activity. More on the design: species or system Human. As for the experimental part: Heterocyclic-substituted bis-1,8-naphthalimide compounds of Formula XV in Table 2 were prepared and tested for in vitro activity against a panel of tumor cells (Example 110).
Alternatively, the efficacy of compounds of the invention can be assayed by the following free test compound cell-based assay protocol
• 1. Prepare each cell line (BT474, H460, HCT116, HUVEC, LNCaP, MCF7, and PC3) at 1 k cells/well in separate plates with Complete Media (CM): RPM1 […]+10% FBS (Fetal Bovine Serum)+1% of 200 mM L-Glutamine. Plate number depends on test compounds provided by submitter. • 2. Detach prospective cell lines by first removing the media. When the flask is empty of media, begin rinsing out individual flasks with 5 mL sterile PBS. Move the PBS around within the flask to rinse well. Decant the PBS and add aseptically 5 mL of Accutase/flask. Make sure the Accutase covers the entire flask. • 3. Immediately place the flask(s) into a 37° C. incubator to allow cells to detach for 5-7 minutes. • 4. Post 5-7 minutes, remove flask(s) from the incubator and begin harvesting the detached cells using a serological pipette. Pipette up and down along the back of the flask to facilitate cell detachment. Pipette the Accutase containing cells into a sterile 50 mL conical tube/cell line. Pipette 10 mL of sterile PBS and re-rinse the flask to obtain remaining cells and dispense it into the same 50 mL conical tube/cell line for a total volume of 15 mL/tube/cell line. • 5. After each cell line has been allocated to a designated tube, take out 100 μL/tube/cell line for the cell counts. While the cell counts are being calculated, centrifuge the 50 mL tubes at 1000 rpm at 4° C. with a high brake. • 6. When centrifugation and cell calculations are completed, decant excess liquid and resuspend the cell pellet(s) using 5 mL CM, depending on calculations. • 7. Using a 5 mL syringe and an 18 G ½ needle, strain the cells to help prevent aggregation. Further strain by using a […] cell filter to block out any huge aggregates not broken down by the needle. • 8. After cell straining and filtering, take out calculated amount for a 1 k cells/well into fresh media. Take the media containing cells and load 100 μL/well into a bottom tissue culture treated flat 96 well plate. • 9. Immediately place in a 37° C. incubator overnight to allow the cells to adhere to the tissue culture treated 96 well plates. Day 2: • 1. Test compounds are submitted at 10 mM in sterile DMSO. • 2. DMSO as negative control and a positive standard are used in every assay! • 3. Prepare a 1:1000 fold dilution for each test compound, control, and standard for a 10e-5 M starting point. Do a 1:100 first, then a 1:10. • 4. Prior to diluting samples, vortex the samples and the controls for a homogeneous mixture. Note any sample that will not solubilize and/or stay in suspension. • 5. When the samples are at 10e-5 M, vortex each tube well and spin down fluid to ensure sample remains in tacked. Manual Dilution Protocol: • 1. After the tubes are at a final 1:1000 (10e-5 M) dilution, load the first column of the microtube box with the prospective sample. Load DMSO and positive control in singlets. The test compounds are loaded in duplicates. Load the remaining empty microtube racks with 540 μL of media to prepare for a serial dilution of 1:10. • 2. Agitate and transfer 60 μL from column 1 into successive wells containing 540 μL of media (1:10). Therefore, transfer 60 μL of column 1 into 540 μL of column 2. Resuspend column 2 about 10-15×'s then transfer 60 μL from column 2 to column 3 etc. Automated Dilution Protocol: • 1. Once the tubes are at a final 1:1000 (10e-5 M), load the first column of the microtube box with the prospective sample. Load DMSO and positive control in singlets. The compounds are loaded in duplicates. Load the remaining empty microtube racks manually with 540 μL of media to prepare for the automated serial dilution of 1:10 (see above diagram). • 2. […]
For orientation: ATP-based viability assays read luminescence as a measure of living cells.

[1] abbreviates: average linear IC50 across the 7 tumor cell panel, read-out: Avg.
The mark [2] stands for this setting: average log IC50 across the 7 tumor cell panel, read-out: Avg. (log IC50) (converted).

Take `CCN(CCCNCCN1C(=O)c2cccc3c(N4CCOCC4)ccc(c23)C1=O)CCN1C(=O)c2cccc3c(N4CCOCC4)ccc(c23)C1=O` [Compound 30a, N, N′-(N-ethyl, bis-aminoethyl-1,3-propanediamine)-bis-4-morpholino-1,8 naphthalimide]: the IC50 by setting is: under setting [1], 3.98 nM; under setting [2], 3.98 nM.

Take `O=C(CN1C(=O)c2cccc3c(N4CCOCC4)ccc(c23)C1=O)NCCCNCCN1C(=O)c2cccc3c(N4CCOCC4)ccc(c23)C1=O` [Compound 41]: the IC50 by setting is: under setting [1], 3.39 nM; under setting [2], 3.39 nM.

As to `Nc1ccc2c3c(cccc13)C(=O)N(CCNCCCNCCN1C(=O)c3cccc4c(N5CCOCC5)ccc(c34)C1=O)C2=O` [Compound 56b, N, N′-(bis-aminoethyl-1,3-propanediamine)-4-amino, 4-morpholino-1,8 naphthalimide], the IC50 runs as follows: under setting [1], 18.6 nM; under setting [2], 18.6 nM.

Turning to `CN1CCN(c2ccc3c4c(cccc24)C(=O)N(CCNCCCNCCN2C(=O)c4cccc5c(N6CCN(C)CC6)ccc(c45)C2=O)C3=O)CC1` [Compound 24a], the IC50 is 0.71 nM under setting [1] and 0.708 nM under setting [2].

As for `O=C1c2cccc3c(N4CCOCC4)ccc(c23)C(=O)N1CCNCCNCCN1C(=O)c2cccc3c(N4CCOCC4)ccc(c23)C1=O` [Compound 54a, N, N′-(bis-aminoethyl-1,2-ethanediamine)-bis-4-morpholino-1,8 naphthalimide], the IC50 reads like this: under setting [1], 22.9 nM; under setting [2], 22.9 nM.

Take `O=C1c2cccc3c(O)ccc(c23)C(=O)N1CCNCCCNCCN1C(=O)c2cccc3c(-n4ccnc4)ccc(c23)C1=O` [Compound 65, N, N′-(bis-aminoethyl-1,3-propanediamine)-4-(N-imidazolyl)-4-hydroxyl-1,8 naphthalimide]: the IC50 is 288 nM under setting [1] and 288 nM under setting [2].

With `O=C1c2cccc3c(N4CCNCC4)ccc(c23)C(=O)N1CCNCCNCCN1C(=O)c2cccc3c(N4CCNCC4)ccc(c23)C1=O` [Compound 58b, N, N′-(bis-aminoethyl-1,2-ethanediamine)-bis-4-piperazino-1,8 naphthalimide], the IC50 by setting is: under setting [1], 26.9 nM; under setting [2], 26.9 nM.

For the molecule `CCOC(=O)N(CCCNCCN1C(=O)c2cccc3c(N4CCOCC4)ccc(c23)C1=O)CCN1C(=O)c2cccc3c(N4CCOCC4)ccc(c23)C1=O` [Compound 54f, N, N′-(N-carboethoxy, bis-aminoethyl-1,3-propanediamine)-bis-4-morpholino-1,8 naphthalimide], the IC50 was 692 nM under setting [1] and 692 nM under setting [2].

In the case of `NCC(=O)N(CCCNCCN1C(=O)c2cccc3c(N4CCOCC4)ccc(c23)C1=O)CCN1C(=O)c2cccc3c(N4CCOCC4)ccc(c23)C1=O` [Compound 54d, N, N′-(N-glycyl, bis-aminoethyl-1,3-propanediamine)-bis-4-morpholino-1,8 naphthalimide], the IC50 under setting [1] amounted to 324 nM and the IC50 under setting [2] is 324 nM.

Turning to `O=C(CN1C(=O)c2cccc3c(N4CCOCC4)ccc(c23)C1=O)NCCCNC(=O)CN1C(=O)c2cccc3c(N4CCOCC4)ccc(c23)C1=O` [Compound 34, N, N′-(bis-2-acetamido-1,3-propanediamine)-bis-4-morpholino-1,8 naphtbalimide], the IC50 under setting [1] stood at 2190 nM and the IC50 under setting [2] was 2190 nM.

On to `O=C1c2cccc3c(N4CCNCC4)ccc(c23)C(=O)N1CCN1C=[N+](CCN2C(=O)c3cccc4c(N5CCNCC5)ccc(c34)C2=O)CCC1` [Compound 59, N, N′-(bis-aminoetbyl-1,4,5,6-tetrahydropyrimidinium)-bis-4-piperazino-1,8 naphthalimide trifluoroacetate salt], for which the IC50 was 1.51 nM under setting [1] and 1.51 nM under setting [2].

As for `O=C(CCS)N(CCCNCCN1C(=O)c2cccc3c(N4CCOCC4)ccc(c23)C1=O)CCN1C(=O)c2cccc3c(N4CCOCC4)ccc(c23)C1=O` [Compound 55c, N, N′-(N-3-mercaptopropionyl, bis-aminoethyl-1,3-propanediamine)-bis-4-morpholino-1,8 naphthalimide], the IC50 was 3720 nM under setting [1] and 3720 nM under setting [2].
